Measurements: patent US10093630B2, “Pyrazole compounds and methods of making and using same” (ABIDE THERAPEUTICS, INC., priority 2014, dated 2018)
Read-outs that look alike come from different tables or passages of the source.

How the values were obtained:
Experiment in all cases: In vitro competitive activity-based protein profiling (gel-based, FP-Rh or HT-01 probe)
Type in all cases: biochemical
[1] = molecular target: T1, PLA2G7 (Mus musculus, UniProt Q60963); conditions: for inhibition at 1 µM: 1 μM inhibitor, read-out: % Inhibition at 1 μM, D = PLA2G7; for inhibition at 10 µM: 10 μM inhibitor, read-out: % Inhibition at 10 μM, D = PLA2G7; for IC50: mouse brain membrane fraction or cell lysates, 30 min preincubation at 37° C.
T1 construct: Proteomes (mouse brain membrane fraction or cell lysates); from tissue; host or cells: mouse brain membrane fraction (or cell lysates, not specified)
T1 sequence (Q60963 22-440): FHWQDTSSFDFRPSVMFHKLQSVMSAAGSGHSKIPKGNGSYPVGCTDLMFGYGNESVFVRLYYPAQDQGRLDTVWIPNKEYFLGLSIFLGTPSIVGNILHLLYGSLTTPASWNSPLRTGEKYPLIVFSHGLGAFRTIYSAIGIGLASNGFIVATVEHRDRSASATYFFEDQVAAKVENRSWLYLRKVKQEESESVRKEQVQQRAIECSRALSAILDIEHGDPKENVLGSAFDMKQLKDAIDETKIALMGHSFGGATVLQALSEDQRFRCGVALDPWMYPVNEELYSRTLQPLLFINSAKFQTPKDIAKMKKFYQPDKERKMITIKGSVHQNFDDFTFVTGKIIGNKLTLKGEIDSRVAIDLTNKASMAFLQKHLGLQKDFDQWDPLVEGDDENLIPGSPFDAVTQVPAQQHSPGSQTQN
Procedure, shortened: (§1)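 Mouse brain membrane or cell lysate proteomes (1.0 mg/mL) preincubated with inhibitors 30 min at 37° C, then labelled with FP-Rh or HT-01 for 30 min at 37° C. After SDS-PAGE, activity quantified from fluorescent band intensity.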

[2] = molecular target: T2, MAGL (Mus musculus, UniProt O35678); conditions: for inhibition at 1 µM: 1 μM inhibitor; for inhibition at 10 µM: 10 μM inhibitor; for IC50: mouse brain membrane fraction or cell lysates, 30 min preincubation at 37° C., read-out: Mouse (IC50 value, nM) MAGL
T2 construct: Proteomes (mouse brain membrane fraction or cell lysates); from tissue; host or cells: mouse brain membrane fraction (or cell lysates, not specified)
T2 sequence (O35678 1-303): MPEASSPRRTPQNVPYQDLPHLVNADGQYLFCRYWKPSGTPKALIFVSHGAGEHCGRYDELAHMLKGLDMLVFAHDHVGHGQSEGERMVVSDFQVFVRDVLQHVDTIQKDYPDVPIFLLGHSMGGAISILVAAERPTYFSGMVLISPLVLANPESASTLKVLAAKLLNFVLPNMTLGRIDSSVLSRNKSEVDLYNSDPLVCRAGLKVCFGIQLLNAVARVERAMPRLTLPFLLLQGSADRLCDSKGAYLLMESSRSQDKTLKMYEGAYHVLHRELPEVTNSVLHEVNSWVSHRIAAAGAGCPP
Procedure, shortened: as §1

[3] = molecular target: T3, ABHD6 (Mus musculus, UniProt Q8R2Y0); conditions: for inhibition at 1 µM: 1 μM inhibitor, read-out: % Inhibition at 1 μM, C = ABHD6; for inhibition at 10 µM: 10 μM inhibitor, read-out: % Inhibition at 10 μM, C = ABHD6; for IC50: mouse brain membrane fraction or cell lysates, 30 min preincubation at 37° C., read-out: Mouse (IC50 value, nM) ABHD6
T3 construct: Proteomes (mouse brain membrane fraction or cell lysates); from tissue; host or cells: mouse brain membrane fraction (or cell lysates, not specified)
T3 sequence (Q8R2Y0 1-336): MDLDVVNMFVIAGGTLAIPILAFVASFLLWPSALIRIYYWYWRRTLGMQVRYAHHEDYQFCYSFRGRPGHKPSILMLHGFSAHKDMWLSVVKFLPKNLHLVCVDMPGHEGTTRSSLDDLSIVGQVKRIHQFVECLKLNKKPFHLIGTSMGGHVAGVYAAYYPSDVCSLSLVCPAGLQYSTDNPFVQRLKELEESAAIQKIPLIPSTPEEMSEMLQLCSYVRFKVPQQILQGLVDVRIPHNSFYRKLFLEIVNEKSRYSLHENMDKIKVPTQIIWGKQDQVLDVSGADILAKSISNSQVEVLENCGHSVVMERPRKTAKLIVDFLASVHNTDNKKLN
Procedure, shortened: as §1

[4] = molecular target: T4, FAAH (Mus musculus, UniProt O08914); conditions: for inhibition at 1 µM: 1 μM inhibitor, read-out: % Inhibition at 1 μM, B = FAAH; for inhibition at 10 µM: 10 μM inhibitor, read-out: % Inhibition at 10 μM, B = FAAH; for IC50: mouse brain membrane fraction or cell lysates, 30 min preincubation at 37° C., read-out: Mouse (IC50 value, nM) FAAH
T4 construct: Proteomes (mouse brain membrane fraction or cell lysates); from tissue; host or cells: mouse brain membrane fraction (or cell lysates, not specified)
T4 sequence (O08914 1-579): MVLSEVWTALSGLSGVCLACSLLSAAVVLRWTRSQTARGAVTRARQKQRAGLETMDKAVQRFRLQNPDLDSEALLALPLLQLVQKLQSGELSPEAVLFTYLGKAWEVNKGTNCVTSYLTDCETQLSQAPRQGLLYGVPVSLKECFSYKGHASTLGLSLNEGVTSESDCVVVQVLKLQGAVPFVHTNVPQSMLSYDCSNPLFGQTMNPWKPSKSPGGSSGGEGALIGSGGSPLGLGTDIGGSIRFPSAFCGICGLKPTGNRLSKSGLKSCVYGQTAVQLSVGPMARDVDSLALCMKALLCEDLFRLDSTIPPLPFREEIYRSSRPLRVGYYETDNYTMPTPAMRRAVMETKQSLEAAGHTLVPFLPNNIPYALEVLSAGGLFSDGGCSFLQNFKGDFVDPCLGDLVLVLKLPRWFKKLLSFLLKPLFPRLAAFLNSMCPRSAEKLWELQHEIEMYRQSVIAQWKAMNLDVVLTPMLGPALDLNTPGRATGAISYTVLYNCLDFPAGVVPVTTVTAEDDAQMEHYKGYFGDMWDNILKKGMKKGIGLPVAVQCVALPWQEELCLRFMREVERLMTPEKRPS
Procedure, shortened: as §1

| inhibition at 1 µM [1] | inhibition at 1 µM [2] | inhibition at 1 µM [3] | inhibition at 1 µM [4] | inhibition at 10 µM [1] | inhibition at 10 µM [2] | inhibition at 10 µM [3] | inhibition at 10 µM [4] | IC50 [1] | IC50 [2] | IC50 [3] | IC50 [4] | inhibition at 1 µM ([1]; gel-based competitive ABPP) | inhibition at 1 µM ([2]; gel-based competitive ABPP) | inhibition at 1 µM ([3]; gel-based competitive ABPP) | inhibition at 1 µM ([4]; gel-based competitive ABPP) | SMILES |
| --- | --- | --- | --- | --- | --- | --- | --- | --- | --- | --- | --- | --- | --- | --- | --- | --- |
| > 75% | > 75% | > 75% | > 75% |  |  |  |  |  |  |  |  |  |  |  |  | O=C(N1CCN(Cc2ccc(CN3CCOCC3)cc2)CC1)n1cc(Cl)cn1 [Example 214, (4-Chloro-1H-pyrazol-1-yl)(4-(4-(morpholinomethyl)benzyl)piperazin-1-yl)methanone] |
| < 25% | < 25% | < 25% | < 25% | > 75% | < 25% | < 25% | < 25% |  |  |  |  |  |  |  |  | CC(=O)N1CCN(C(=O)n2cc(Cl)cn2)CC1 [Example 183, 1-(4-(4-Chloro-1H-pyrazole-1-carbonyl)piperazin-1-yl)ethanone] |
| > 75% | > 75% | > 75% | > 75% | > 75% | > 75% | > 75% | > 75% |  |  |  |  |  |  |  |  | N#Cc1cnn(C(=O)N2CCN(Cc3ccc4ccccc4c3)CC2)c1 [Example 12, 1-(4-(Naphthalen-2-ylmethyl)piperazine-1-carbonyl)-1H-pyrazole-4-carbonitrile] |
| < 25% | > 75% | > 75% | > 75% |  |  |  |  | > 1000 nM | < 100 nM | < 100 nM | < 100 nM |  |  |  |  | O=C(N1CCN(Cc2cccc(Oc3ccccc3)c2)CC1)n1cc(Cl)cn1 [Example 216, (4-Chloro-1H-pyrazol-1-yl)(4-(3-phenoxybenzyl)piperazin-1-yl)methanone] |
| > 75% | < 25% | > 75% | < 25% | > 75% | 25 to 75% | > 75% | 25 to 75% |  |  |  |  |  |  |  |  | CS(=O)(=O)N1CCN(C(=O)n2cc(C(F)(F)F)cn2)CC1 [Example 150, (4-(Methylsulfonyl)piperazin-1-yl)(4-(trifluoromethyl)-1H-pyrazol-1-yl)methanone] |
| < 25% |  | < 25% |  | > 75% | < 25% | > 75% | < 25% |  |  |  |  |  |  |  |  | O=C(c1cnn(C(=O)N2CCN(Cc3cncnc3)CC2)c1)N1CCC1 [Example 92, Azetidin-1-yl(1-(4-(pyrimidin-5-ylmethyl)piperazine-1-carbonyl)-1H-pyrazol-4-yl)methanone] |
|  |  |  |  |  |  |  |  | < 100 nM | < 100 nM | < 100 nM | 100 to 1000 nM | > 75% | > 75% | > 75% | > 75% | O=C(N1CCN(Cc2cccc(N3CCOCC3)c2)CC1)n1cc(C(F)(F)F)cn1 [Example 274, (4-(3-Morpholinobenzyl)piperazin-1-yl)(4-(trifluoromethyl)-1H-pyrazol-1-yl)methanone] |
| 25 to 75% | 25 to 75% | > 75% | > 75% | > 75% | > 75% | > 75% | > 75% |  |  |  |  |  |  |  |  | Cc1cc(N2CCN(C(=O)n3cc(-c4ccccc4)cn3)CC2)c2ccccc2n1 [Example 207, (4-(2-Methylquinolin-4-yl)piperazin-1-yl)(4-phenyl-1H-pyrazol-1-yl)methanone] |
| < 25% | 25 to 75% | > 75% | > 75% | > 75% | > 75% | > 75% | > 75% |  |  |  |  |  |  |  |  | O=C(N1CCN(CC2CC2)CC1)n1cc(Cl)cn1 [Example 215, (4-Chloro-1H-pyrazol-1-yl)(4-(cyclopropylmethyl)piperazin-1-yl)methanone] |
| < 25% | < 25% | < 25% | < 25% | 25 to 75% | 25 to 75% | > 75% | > 75% |  |  |  |  |  |  |  |  | O=C(N1CCCCC1)n1cccn1 [Example 1, Piperidin-1-yl(1H-pyrazol-1-yl)methanone] |
| > 75% | > 75% | > 75% | > 75% |  |  |  |  | 100 to 1000 nM | < 100 nM | 100 to 1000 nM | 100 to 1000 nM |  |  |  |  | Cc1cc(N2CCOCC2)ccc1CN1CCN(C(=O)n2cc(Cl)cn2)CC1 [Example 218, (4-Chloro-1H-pyrazol-1-yl)(4-(2-methyl-4-morpholinobenzyl)piperazin-1-yl)methanone] |
| 25 to 75% | < 25% | > 75% | > 75% | > 75% | > 75% | > 75% | > 75% |  |  |  |  |  |  |  |  | CN1CCN(C(=O)n2cc(C(F)(F)F)cn2)CC1 [Example 151, (4-Methylpiperazin-1-yl)(4-(trifluoromethyl)-1H-pyrazol-1-yl)methanone] |
|  |  |  |  | < 25% | < 25% | < 25% | < 25% |  |  |  |  |  |  |  |  | Cc1cnn(C(=O)N2CCCN(Cc3ccccc3)CC2)c1 [Example 168, (4-Benzyl-1,4-diazepan-1-yl)(4-methyl-1H-pyrazol-1-yl)methanone] |
| < 25% | < 25% | 25 to 75% | 25 to 75% | < 25% | 25 to 75% | > 75% | > 75% |  |  |  |  |  |  |  |  | Cc1cnn(C(=O)N2CCCN(C(=O)OC(C)(C)C)CC2)c1 [Example 26, tert-Butyl 4-(4-methyl-1H-pyrazole-1-carbonyl)-1,4-diazepane-1-carboxylate] |
|  |  |  |  |  |  |  |  | > 1000 nM | > 1000 nM | > 1000 nM | < 100 nM | < 25% | 25 to 75% | < 25% | > 75% | CCN(Cc1ccc(Cl)cc1)C(=O)n1cc(C(F)(F)F)cn1 [Example 253, N-(4-Chlorobenzyl)-N-ethyl-4-(trifluoromethyl)-1H-pyrazole-1-carboxamide] |
